Our source for the inhibition values is patent US20260226493A1, “HERBICIDE RESISTANT PLANTS” (SYNGENTA CROP PROTECTION AG, priority 2023, published 2026).

Common to all, as to assay: BIO3-BIO1 mutant enzyme activity in the presence of herbicide, percentage inhibition (fluorometric DAPA assay)
Common to all, as to type: biochemical
Holding throughout (conditions): read-out: percentage inhibition

Assay [1] deals with T1, Arabidopsis thaliana BIO3-BIO1 (BioDA) mutants (Arabidopsis thaliana, UniProt B0F481, Y511D).
T1 construct: with the predicted N-terminal mitochondrial transit peptide removed; 6xHis-tag (N); thrombin cleavage site (N); made in house; host or cells: E. coli BL21 (DE3) bioA
T1 sequence (B0F481 23-833 Y511D): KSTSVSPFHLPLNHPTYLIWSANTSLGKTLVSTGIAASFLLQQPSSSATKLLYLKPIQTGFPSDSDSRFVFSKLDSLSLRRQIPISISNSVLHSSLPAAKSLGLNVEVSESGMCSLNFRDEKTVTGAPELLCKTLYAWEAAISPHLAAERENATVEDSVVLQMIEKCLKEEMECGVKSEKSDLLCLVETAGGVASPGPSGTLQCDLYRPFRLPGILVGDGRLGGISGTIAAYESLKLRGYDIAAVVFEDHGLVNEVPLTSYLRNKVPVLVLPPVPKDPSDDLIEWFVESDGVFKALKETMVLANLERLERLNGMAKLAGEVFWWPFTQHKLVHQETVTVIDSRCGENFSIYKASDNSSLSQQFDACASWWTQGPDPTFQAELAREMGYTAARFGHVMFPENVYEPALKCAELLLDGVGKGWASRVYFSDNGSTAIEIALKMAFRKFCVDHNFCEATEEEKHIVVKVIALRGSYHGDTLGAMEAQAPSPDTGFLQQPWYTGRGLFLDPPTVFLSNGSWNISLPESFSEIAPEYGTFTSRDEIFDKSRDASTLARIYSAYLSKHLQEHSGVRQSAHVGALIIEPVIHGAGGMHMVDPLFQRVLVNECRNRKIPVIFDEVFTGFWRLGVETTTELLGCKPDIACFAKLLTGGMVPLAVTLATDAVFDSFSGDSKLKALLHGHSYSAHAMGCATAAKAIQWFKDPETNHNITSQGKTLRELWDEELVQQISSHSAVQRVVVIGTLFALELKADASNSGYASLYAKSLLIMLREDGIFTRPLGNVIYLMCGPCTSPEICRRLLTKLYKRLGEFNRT
From the text: (§1) A pet-24 plasmid containing a DNA sequence encoding each identified variant mutant of BIO3-BIO1 derived from Arabidopsis thaliana from example 5 above, as shown in Table 13 below and as shown in full in SEQ ID NOs: 15 to 155, codon-optimised for expression in E. coli, with an N-terminal 6×His-tag and thrombin cleavage site and under control of a T7 promoter, and was synthesised by Twist Bioscience, in a similar manner to SEQ ID NO:311. These plasmids were then expressed in E. coli BL21 (DE3) bioA with 50 μg/mL kanamycin and 25 μg/mL chloramphenicol selection. Overnight cultures grown at 37° C. were used to inoculate 8×500 mL AIM in shake flasks at a ratio of 1:100. Cultures were grown at 37° C., 200 rpm for 3.5 hours and then overnight at 20° C. Cells were harvested by centrifugation for 30 minutes at 10 000 g. Cells were stored at −80° C. until extraction. 30 g of cell pellet from was thawed in 120 mL of IMAC buffer A (20 mM HEPES pH7.5, 25 mM imidazole, 500 mM sodium chloride, 0.15 mM pyridoxal phosphate, 0.5 mM TCEP, 1× complete Protease Inhibitor Tablet (Roche)). The resuspension was passed through a cell disrupter at 18 000 PSI and centrifuged at 50 000 g for 25 minutes at 4° C. The His-tagged BIO3-BIO1 protein was purified from the extract supernatant on an AKTA avant chromatography system (Cytiva) using a HisTrap FF column and eluted in IMAC buffer B ((20 mM HEPES pH7.5, 500 mM imidazole, 500 mM sodium chloride, 0.15 mM pyridoxal phosphate, 0.5 mM TCEP) followed by SEC using a HiLoad 26/60 Superdex200 column in SEC buffer (25 mM HEPES pH7.5, 150 mM sodium chloride, 0.15 mM pyridoxal phosphate, 0.5 mM TCEP). Protein concentration was measured and calculated using the absorbance at 280 nm. Extracts were diluted 1 in 4 and 10 uL was analysed by SDS PAGE.
(§2) To measure BIO3-BIO1 mutant enzyme activity in the presence of herbicide, herbicides were incubated with 20 μL of enzyme mix (100 mM EPPS pH 8.6, 0.1 mM pyridoxal phosphate, 0.1 mg/mL BSA, 50 nM BIO3-BIO1 enzyme) for 10 minutes at 20° C. in a well of a 96-well half-area black plate, followed by the addition of 20 μL of substrate mix (final concentration of 100 mM EPPS pH 8.6, 0.1 mM pyridoxal phosphate, 0.1 mg/mL BSA, 100 μM spermidine, 20 μM KAPA, 100 mM NaCO3) and further incubation for 75 minutes at 20° C. The reaction was terminated by the addition of 50 μL of derivatisation mix (final concentration of 250 mM borate NaOH pH 9.4, 3.6 mM o-phthalaldehyde, 7 mM β-mercaptoethanol, 17% (v/v) ethanol, 3.6% (v/v) methanol). The fluorescent product produced by the reaction of DAPA with o-phthalaldehyde and 7 mM β-mercaptoethanol was measured at 470 nm after excitation at 410 nm. The percentage inhibition was calculated as the activity in the presence of one of three concentrations of each herbicide compound A to M (note that the compounds labelled as A to M are identified hereinabove in the relevant section of the description) as a percentage of the activity in DMSO (Table 12 and 13). The percentage activity versus WT was also calculated and is shown in Table 13 and 14 (NT indicates mutation not tested in table 13, note that these mutations are tested at different compound concentrations for compounds L, M and C, and the results are shown in table 14).

Assay [2] has as its target T2, Arabidopsis thaliana BIO3-BIO1 (BioDA) mutants (Arabidopsis thaliana, UniProt B0F481, T512Q).
T2 construct: with the predicted N-terminal mitochondrial transit peptide removed; 6xHis-tag (N); thrombin cleavage site (N); made in house; host or cells: E. coli BL21 (DE3) bioA
Excerpt: as §1, §2

For assay [3], the target named is T3, Arabidopsis thaliana BIO3-BIO1 (BioDA) mutants (Arabidopsis thaliana, UniProt B0F481, S390C).
T3 construct: with the predicted N-terminal mitochondrial transit peptide removed; 6xHis-tag (N); thrombin cleavage site (N); made in house; host or cells: E. coli BL21 (DE3) bioA
T3 sequence (B0F481 23-833 S390C): as the sequence (B0F481 23-833 Y511D) above, with S368C, D489Y counted along it
Excerpt: as §1, §2

For assay [4], the target named is T4, Arabidopsis thaliana BIO3-BIO1 (BioDA) mutants (Arabidopsis thaliana, UniProt B0F481, W392D).
T4 construct: with the predicted N-terminal mitochondrial transit peptide removed; 6xHis-tag (N); thrombin cleavage site (N); made in house; host or cells: E. coli BL21 (DE3) bioA
T4 sequence (B0F481 23-833 W392D): as the sequence (B0F481 23-833 Y511D) above, with W370D, D489Y counted along it
Excerpt: as §1, §2

For assay [5], the target named is T5, Arabidopsis thaliana BIO3-BIO1 (BioDA) mutants (Arabidopsis thaliana, UniProt B0F481, S509H).
T5 construct: with the predicted N-terminal mitochondrial transit peptide removed; 6xHis-tag (N); thrombin cleavage site (N); made in house; host or cells: E. coli BL21 (DE3) bioA
T5 sequence (B0F481 23-833 S509H): as the sequence (B0F481 23-833 Y511D) above, with S487H, D489Y counted along it
Excerpt: as §1, §2

The target in assay [6] is T6, Arabidopsis thaliana BIO3-BIO1 (BioDA) mutants (Arabidopsis thaliana, UniProt B0F481, T393V).
T6 construct: with the predicted N-terminal mitochondrial transit peptide removed; 6xHis-tag (N); thrombin cleavage site (N); made in house; host or cells: E. coli BL21 (DE3) bioA
T6 sequence (B0F481 23-833 T393V): as the sequence (B0F481 23-833 Y511D) above, with T371V, D489Y counted along it
Excerpt: as §1, §2

The target of assay [7] is T7, Arabidopsis thaliana BIO3-BIO1 (BioDA) mutants (Arabidopsis thaliana, UniProt B0F481, S509G).
T7 construct: with the predicted N-terminal mitochondrial transit peptide removed; 6xHis-tag (N); thrombin cleavage site (N); made in house; host or cells: E. coli BL21 (DE3) bioA
T7 sequence (B0F481 23-833 S509G): as the sequence (B0F481 23-833 Y511D) above, with S487G, D489Y counted along it
Excerpt: as §1, §2

The target of assay [8] is T8, Arabidopsis thaliana BIO3-BIO1 (BioDA) mutants (Arabidopsis thaliana, UniProt B0F481, W392S).
T8 construct: with the predicted N-terminal mitochondrial transit peptide removed; 6xHis-tag (N); thrombin cleavage site (N); made in house; host or cells: E. coli BL21 (DE3) bioA
T8 sequence (B0F481 23-833 W392S): as the sequence (B0F481 23-833 Y511D) above, with W370S, D489Y counted along it
Excerpt: as §1, §2

Assay [9] concerns the target T9, Arabidopsis thaliana BIO3-BIO1 (BioDA) mutants (Arabidopsis thaliana, UniProt B0F481, A609K).
T9 construct: with the predicted N-terminal mitochondrial transit peptide removed; 6xHis-tag (N); thrombin cleavage site (N); made in house; host or cells: E. coli BL21 (DE3) bioA
Excerpt: as §1, §2

The target in assay [10] is T10, Arabidopsis thaliana BIO3-BIO1 (BioDA) mutants (Arabidopsis thaliana, UniProt B0F481, S509R).
T10 construct: with the predicted N-terminal mitochondrial transit peptide removed; 6xHis-tag (N); thrombin cleavage site (N); made in house; host or cells: E. coli BL21 (DE3) bioA
T10 sequence (B0F481 23-833 S509R): as the sequence (B0F481 23-833 Y511D) above, with S487R, D489Y counted along it
Excerpt: as §1, §2

Assay [11] addresses T11, Arabidopsis thaliana BIO3-BIO1 (BioDA) mutants (Arabidopsis thaliana, UniProt B0F481, T512I).
T11 construct: with the predicted N-terminal mitochondrial transit peptide removed; 6xHis-tag (N); thrombin cleavage site (N); made in house; host or cells: E. coli BL21 (DE3) bioA
Excerpt: as §1, §2

In assay [12] the target is T12, Arabidopsis thaliana BIO3-BIO1 (BioDA) mutants (Arabidopsis thaliana, UniProt B0F481, P421W).
T12 construct: with the predicted N-terminal mitochondrial transit peptide removed; 6xHis-tag (N); thrombin cleavage site (N); made in house; host or cells: E. coli BL21 (DE3) bioA
T12 sequence (B0F481 23-833 P421W): as the sequence (B0F481 23-833 Y511D) above, with P399W, D489Y counted along it
Excerpt: as §1, §2

T11 sequence (B0F481 23-833 T512I): as the sequence (B0F481 23-833 Y511D) above, with D489Y, T490I counted along it
T9 sequence (B0F481 23-833 A609K): as the sequence (B0F481 23-833 Y511D) above, with D489Y, A587K counted along it
T2 sequence (B0F481 23-833 T512Q): as the sequence (B0F481 23-833 Y511D) above, with D489Y, T490Q counted along it

Turning to `CCn1c(C)c(-c2ccc(F)cc2F)c(=O)c(C(=O)O)c1-c1ccc(Cl)c(Cl)c1` [Compound C, 2-(3,4-dichlorophenyl)-5-(2,4-difluorophenyl)-1-ethyl-6-methyl-4-oxo-pyridine-3-carboxylic acid], the inhibition (usually the relative decrease from the control value, in per cent) at 0.2 µM in [1] amounted to 68%; in assay [2], 53%; in [3], 27%; in assay [4], 46%; in [5], 20%; in assay [6], 3%. Further, the inhibition at 0.2 µM was determined as 20% in assay [7]; 0% in assay [8]; 65% in assay [9]; 42% in [10]; 60% in assay [11]; 0% in assay [12]. Also, the inhibition at 1 µM is 93% in [1]; 96% in assay [2]; 55% in [3]; 59% in assay [4]; 75% in [5]; 31% in assay [6]. The inhibition at 1 µM in [7] is 53%; in assay [8], 0%; in [9], 80%; in assay [10], 87%; in [11], 96%; in [12], 15%. Further, the inhibition at 5 µM in assay [1] worked out at 99%; in assay [2], 100%; in assay [3], 83%; in [4], 91%; in assay [5], 98%; in assay [6], 70%. Besides, the inhibition at 5 µM in assay [7] amounted to 75%; in assay [8], 20%; in assay [9], 87%; in assay [10], 98%; in assay [11] it was 99%; in assay [12], 37%.

Take `CCn1c(Cn2ccc(C(F)(F)F)n2)cc(=O)c(C(=O)O)c1-c1ccc(Cl)c(Cl)c1` [Compound L, 2-(3,4-dichlorophenyl)-1-ethyl-4-oxo-6-[[3-(trifluoromethyl)pyrazol-1-yl]methyl]pyridine-3-carboxylic acid]: in assay [9], the inhibition at 0.01 µM came to 36%, the inhibition at 0.075 µM amounted to 52% and the inhibition at 0.5 µM worked out at 64%. For the same compound, in assay [12], the inhibition at 0.01 µM was found to be 0%, the inhibition at 0.075 µM worked out at 8% and the inhibition at 0.5 µM turned out to be 27%.

`CCOC(=O)c1nn(-c2ccc3c(c2)OC(F)(F)C(F)(F)O3)c2cccc(C(C)=O)c2c1=O` [Compound A, ethyl 5-acetyl-4-oxo-1-(2,2,3,3-tetrafluoro-1,4-benzodioxin-6-yl)cinnoline-3-carboxylate]: the inhibition at 1 µM in [1] is 10%; in [2], 49%; in [3], 21%; in assay [4], 55%; in [5], 0%; in [6], 10%. Moreover, the inhibition at 1 µM in assay [7] turned out to be 36%; in assay [8] it was 23%; in assay [9] it was 18%; in [10], 15%; in assay [11], 37%; in assay [12], 21%.

Turning to `CCn1c(-c2ccc(Cl)c(Cl)c2)c(C(=O)O)c(=O)c2cc(F)ccc21` [Compound M, 2-(3,4-dichlorophenyl)-1-ethyl-6-fluoro-4-oxo-quinoline-3-carboxylic acid], the inhibition at 0.2 µM in [1] came out at 38%; in assay [2] it was 49%; in assay [3], 16%; in assay [4] it was 14%; in [5], 23%; in assay [6] it was 0%. Also, the inhibition at 0.2 µM was determined as 28% in assay [7]; 0% in assay [8]; 0% in assay [9]; 48% in [10]; 48% in assay [11]; 0% in assay [12]. In addition, the inhibition at 1 µM in assay [1] worked out at 81%; in [2], 91%; in [3], 44%; in assay [4], 37%; in assay [5], 82%; in [6] it was 19%. For the same compound, the inhibition at 1 µM is 47% in assay [7]; 0% in assay [8]; 78% in assay [9]; 82% in assay [10]; 85% in assay [11]; 0% in assay [12]. Also, the inhibition at 5 µM in assay [1] is 96%; in [2], 99%; in assay [3], 74%; in [4], 81%; in [5], 98%; in assay [6], 46%. The inhibition at 5 µM was 71% in assay [7]; 0% in assay [8]; 92% in [9]; 96% in [10]; 96% in assay [11]; 18% in assay [12].
